Patent EP2876156A1 (COMMISSARIAT A L'ENERGIE ATOMIQUE ET AUX ENERGIES …, priority 2013, dated 2015)

Columns and labels:
[1] = test system: Decarboxyl (or Decarboxy2); assay: Enzymatic hydroxylation followed by decarboxylation to hydroxylated diamino alkanes, conversion by HPLC (protocol A); format: biochemical, Flavobacterium johnsoniae; Chitinophaga pinensis; conditions: L-lysine or L-ornithine hydroxylated (part V conditions), then PLP, DTT and Decarboxy1 (or Decarboxy2) added, 18h at 37 °C; HPLC after Fmoc-Cl derivatization
Description: The conversions were determined by HPLC after Fmoc-Cl derivatization (protocol A). Atlantis T3 (3µm 4.5*150 mm) at 35°C with the gradient 50-86% eluent B (MeCN + 0.1% TFA) and eluent A (H2O + 0.1% TFA) in 20 min at 1 mL/min […].
L-lysine was converted into (3S)-3-hydroxy-L-lysine by ENZ1 in conditions described in part V.
30 µL pyridoxal 5'-phosphate (PLP) 10 mM, 3 µL dithiothreitol (DTT) 100 mM and Decarboxyl (or Decarboxy2) 50 µL 1.5 mg/mL were then added in the reaction medium. The mixture was stirred (1000 rpm) for 18h at 37 °C.
Lysine was converted into (4R)-4-hydroxy-L-lysine in conditions described in part V 30 µL PLP 10 mM, 3 µL DTT 100 mM and Decarboxyl(or Decarboxy2) 50 µL 1.5 mg/mL were then added in the reaction medium to perform decarboxylation. The mixture was stirred (1000 rpm) for 18h at 37 °C.
The mixture was stirred (1000 rpm) for 18h at 37 °C.
Lysine was converted into (3R,4R)-3,4-dihydroxy-L-lysine in conditions described in part V, by cascade reaction with ENZ1 (SEQ NO:1) and ENZ2 (SEQ NO:2).
The volume of the reaction medium was reduced to 180 µL using a speedvac. 26 µL PLP 10 mM, 2.6 µL DTT 100 mM and Decarboxyl (or Decarboxy2) 50 µL (lysat) were then added to perform decarboxylation. The mixture was stirred (1000 rpm) for 18h at 37 °C.

ENZ1 SEQ ID N°1 = target: T1, ENZ1 SEQ ID N°1 (Catenulispora acidiphila, UniProt C7QJ42); assay: Substrate selectivity screening of hydroxylase (conversion by HPLC after Fmoc-Cl derivatization); format: biochemical; conditions: enzyme 0.08 mg/mL, molar ratio α-ketoglutarate/substrate 15/10, Hepes buffer 50 mM pH 7,5, Mohr's salt 1mM, without sodium ascorbate, room temperature, three hours
T1 construct: His6 (hexahistidine, inserted after the initial methionine) (N); made in house; host or cells: E. coli BL21(DE3) plysE
T1 sequence (C7QJ42 1-358): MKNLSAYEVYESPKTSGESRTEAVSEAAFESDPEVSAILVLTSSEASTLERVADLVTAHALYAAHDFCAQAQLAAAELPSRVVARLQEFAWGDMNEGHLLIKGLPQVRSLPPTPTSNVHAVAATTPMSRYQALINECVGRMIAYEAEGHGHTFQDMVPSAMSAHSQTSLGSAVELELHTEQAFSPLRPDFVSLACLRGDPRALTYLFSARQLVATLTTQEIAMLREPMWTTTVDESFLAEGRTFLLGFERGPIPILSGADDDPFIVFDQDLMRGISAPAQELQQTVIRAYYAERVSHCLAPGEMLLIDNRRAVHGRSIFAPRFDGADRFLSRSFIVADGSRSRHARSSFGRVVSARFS
Description: (§1) Enzymatic reaction medium (0.2 µmole, leq.), borate buffer 0,2M pH 7.7 (80 µL) and Fmoc-Cl solution7.5 mM in acetone (100 µL, 0.75 µmole, 3.75 eq) were hand shaked in a closed 1.50 mL eppendorf for one minute. The aqueous layer was extracted with petroleum ether (3*1 mL) to eliminate excess of Fmoc-Cl. 70 µL of the aqueous phase were withdrawn, diluted with 70 µL of acetonitrile and injected into the HPLC. For substrates with two amine functions, 100 µL of Fmoc-Cl solution 15 mM were used.
(§2) Conditions for HPLC analysis: Atlantis® T3 (3 µm 4.5*150 mm) at 35°C with the gradient 50-86% eluent B (MeCN + 0.1% TFA) and eluent A (H2O + 0.1% TFA) in 20 min at 1 mL/min.
(§3) Enzymes (0.08 mg/mL) were screened against substrates (molar ratio α-ketoglutarate/substrate 15/10) in Hepes buffer 50 mM pH 7,5, with Mohr's salt at 1mM and without sodium ascorbate, at room temperature for three hours. The potential conversions of the substrates were determined by HPLC after Fmoc-Cl derivatization as section III here above.

ENZ4 SEQ ID NO:4 [2] = target: T2, ENZ4 SEQ ID NO:4 (Catenulispora acidiphila, UniProt C7Q942); assay: as above; format: biochemical; conditions: enzyme 0.08 mg/mL, molar ratio α-ketoglutarate/substrate 15/10, Hepes buffer 50 mM pH 7,5, Mohr's salt 1mM, without sodium ascorbate, room temperature, three hours
T2 construct: His6 (hexahistidine, inserted after the initial methionine) (N); made in house; host or cells: E. coli BL21(DE3) plysE
T2 sequence (C7Q942 1-343): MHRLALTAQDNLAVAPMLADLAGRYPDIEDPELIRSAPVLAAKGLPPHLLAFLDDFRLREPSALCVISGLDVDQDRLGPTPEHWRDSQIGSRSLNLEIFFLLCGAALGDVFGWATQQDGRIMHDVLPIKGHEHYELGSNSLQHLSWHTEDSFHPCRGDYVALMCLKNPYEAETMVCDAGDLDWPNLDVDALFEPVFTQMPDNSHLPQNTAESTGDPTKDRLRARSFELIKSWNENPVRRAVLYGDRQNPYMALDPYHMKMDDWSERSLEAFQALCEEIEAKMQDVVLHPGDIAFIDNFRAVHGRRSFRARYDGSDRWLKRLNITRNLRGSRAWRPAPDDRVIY
Description: as §1, §2, §3

ENZ2 SEQ ID NO:2 = target: T3, ENZ2 SEQ ID NO:2 (Flavobacterium johnsoniae, UniProt A5FF23); format: biochemical; conditions: enzyme 0.08 mg/mL, molar ratio α-ketoglutarate/substrate 15/10, Hepes buffer 50 mM pH 7,5, Mohr's salt 1mM, without sodium ascorbate, room temperature, three hours
T3 construct: His6 (hexahistidine, inserted after the initial methionine) (N); made in house; host or cells: E. coli BL21(DE3) plysE
T3 sequence (A5FF23 1-370): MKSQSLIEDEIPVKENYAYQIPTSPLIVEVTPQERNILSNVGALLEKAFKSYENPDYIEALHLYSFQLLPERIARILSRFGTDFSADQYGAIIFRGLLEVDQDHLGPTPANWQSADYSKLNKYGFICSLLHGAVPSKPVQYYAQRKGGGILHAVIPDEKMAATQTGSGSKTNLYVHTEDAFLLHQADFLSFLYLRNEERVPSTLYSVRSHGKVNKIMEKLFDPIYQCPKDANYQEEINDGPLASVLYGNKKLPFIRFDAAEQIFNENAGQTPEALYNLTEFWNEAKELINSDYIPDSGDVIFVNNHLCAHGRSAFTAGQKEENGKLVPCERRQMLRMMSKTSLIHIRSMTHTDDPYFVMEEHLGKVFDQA
Description: as §1, §2, §3

ENZ3 SEQ ID NO:3 = target: T4, ENZ3 SEQ ID NO:3 (Chitinophaga pinensis, UniProt C7PLM6); format: biochemical; conditions: enzyme 0.08 mg/mL, molar ratio α-ketoglutarate/substrate 15/10, Hepes buffer 50 mM pH 7,5, Mohr's salt 1mM, without sodium ascorbate, room temperature, three hours
T4 construct: His6 (hexahistidine, inserted after the initial methionine) (N); made in house; host or cells: E. coli BL21(DE3) plysE
T4 sequence (C7PLM6 1-382): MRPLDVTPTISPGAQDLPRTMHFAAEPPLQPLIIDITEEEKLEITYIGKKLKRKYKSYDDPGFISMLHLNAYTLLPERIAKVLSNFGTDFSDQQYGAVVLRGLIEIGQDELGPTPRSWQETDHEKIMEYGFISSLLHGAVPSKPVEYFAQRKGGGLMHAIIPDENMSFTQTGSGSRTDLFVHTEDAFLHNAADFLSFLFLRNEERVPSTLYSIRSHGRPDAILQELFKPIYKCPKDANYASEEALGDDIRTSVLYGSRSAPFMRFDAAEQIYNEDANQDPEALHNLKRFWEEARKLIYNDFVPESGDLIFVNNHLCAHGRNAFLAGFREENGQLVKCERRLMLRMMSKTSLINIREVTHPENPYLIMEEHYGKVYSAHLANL
Description: as §1, §2, §3

ENZ4 SEQ ID NO:4 [3] = target: T2, ENZ4 SEQ ID NO:4; assay: Enzymatic hydroxylation of L-ornithine and L-arginine, 10 mL scale, conversion by HPLC; format: biochemical; conditions: ENZ4 0.595 mg/mL, without sodium ascorbate, room temperature, 18h; HPLC after FDAA derivatization (protocol B)
Description: 70 µL of the aqueous phase were withdrawn, diluted with 70 µL of acetonitrile and injected into the HPLC. […]
as §2

ENZ5 (SEQ ID NO:9) = target: T5, ENZ5 (SEQ ID NO:9) (Niastella koreensis, UniProt G8T8D0); assay: Hydroxylation capability, HPLC analysis of reaction media after derivatization; format: biochemical
T5 construct: His6 (hexahistidine, inserted after the initial methionine) (N); made in house; host or cells: E. coli BL21(DE3) plysE
T5 sequence (G8T8D0 1-371): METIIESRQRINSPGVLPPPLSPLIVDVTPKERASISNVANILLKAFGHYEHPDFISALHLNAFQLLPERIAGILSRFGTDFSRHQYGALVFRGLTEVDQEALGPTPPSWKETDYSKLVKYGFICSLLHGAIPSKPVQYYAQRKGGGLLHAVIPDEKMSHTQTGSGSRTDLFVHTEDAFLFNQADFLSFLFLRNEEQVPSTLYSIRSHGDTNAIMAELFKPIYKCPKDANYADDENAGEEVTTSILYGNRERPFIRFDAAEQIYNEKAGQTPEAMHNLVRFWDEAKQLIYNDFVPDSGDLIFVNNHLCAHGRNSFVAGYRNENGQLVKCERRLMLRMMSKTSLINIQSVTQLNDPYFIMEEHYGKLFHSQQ
Description: as §3
(§4) The hydroxylation capability of two other enzymes, namely ENZ6 (SEQ ID NO:10) and ENZ5 (SEQ ID NO:9) were also assessed. The amino sequence of ENZ6 has 79% of amino acid identity with SEQ ID NO:2 of ENZ2 while the amino sequence of ENZ5 has 72% of amino acid identity with SEQ ID NO:3 of ENZ3. […] As shown in part VI, ENZ6 and ENZ5 provide (4R)-hydroxy-L-lysine from L-lysine similarly to ENZ2 and ENZ3. Thus ENZ6 and ENZ5 are likely to have the same substrate selectivity and provide similar products as ENZ2 and ENZ3.

ENZ6 (SEQ ID NO:10) = target: T6, ENZ6 (SEQ ID NO:10) (Flavobacterium sp., UniProt J3BZS6); assay: as above; format: biochemical
T6 construct: His6 (hexahistidine, inserted after the initial methionine) (N); made in house; host or cells: E. coli BL21(DE3) plysE
Description: as §3, §4

T6 sequence (J3BZS6 whole entry): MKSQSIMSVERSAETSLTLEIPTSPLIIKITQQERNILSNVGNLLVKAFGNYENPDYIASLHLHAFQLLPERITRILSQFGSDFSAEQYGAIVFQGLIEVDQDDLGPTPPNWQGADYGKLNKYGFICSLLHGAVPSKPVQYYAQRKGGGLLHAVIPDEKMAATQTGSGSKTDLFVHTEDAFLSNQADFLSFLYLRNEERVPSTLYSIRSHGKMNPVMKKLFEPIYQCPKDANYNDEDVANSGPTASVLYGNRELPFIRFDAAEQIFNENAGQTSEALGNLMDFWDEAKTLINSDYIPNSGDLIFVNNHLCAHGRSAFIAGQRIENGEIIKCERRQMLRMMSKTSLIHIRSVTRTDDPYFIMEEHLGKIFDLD

SMILES: NCC[C@@H](O)[C@H](O)CN [(2R,3R)-1,5-diamino-2,3-pentanediol]
- Conversion [1]: > 90%

SMILES: NCCC[C@H](O)CN [(2S)-1,5-diamino-2-pentanol]
- Conversion [1]: > 95%

SMILES: NCCC(O)CCN [1,5-diamino-3-pentanol]
- Conversion [1]: 100%

SMILES: N=C(N)NCCC[C@H](N)C(=O)O [L-arginine]
- potential conversions of the substrates, ENZ1 SEQ ID N°1 (ENZ1 SEQ ID N°1): negative
- potential conversions of the substrates, ENZ4 SEQ ID NO:4 (ENZ4 SEQ ID NO:4 [2]): positive
- potential conversions of the substrates, ENZ2 SEQ ID NO:2 (ENZ2 SEQ ID NO:2): negative
- potential conversions of the substrates, ENZ3 SEQ ID NO:3 (ENZ3 SEQ ID NO:3): negative
- conversion of L-arginine into hydroxylated product (ENZ4 SEQ ID NO:4 [3]): 50%

SMILES: NCCC[C@H](N)C(=O)O [L-ornithine]
- hydroxylation capability of ENZ5 (ENZ5 (SEQ ID NO:9)): not able to convert
- hydroxylation capability of ENZ6 (ENZ6 (SEQ ID NO:10)): not able to convert

SMILES: NCC[C@H](O)CN [(2S)-1,4-diamino-2-butanol]
- Conversion [1]: 50%
